In US6423376B1, “Tartaric acid diesters as biodegradable surfactants” (Air Products and Chemicals, Inc., priority 2000, dated 2002):

How the values were obtained:
Type in all cases: physicochemical
[1] = Dynamic surface tension of aqueous solutions, maximum bubble pressure method; conditions: for limiting γ (0.1 b/s) / limiting γ (1 b/s) / limiting γ (6 b/s) / limiting γ (20 b/s): lowest surface tension in water; for pC20: negative logarithm of molar concentration giving 52.1 dyne/cm at 0.1 b/s; for decrease in the limiting surface tension: in comparison to dipentyl-L-tartrate
From the text: where R1 and R2 are independently a C4 to C6 alkyl group, but preferably are the same; provided that when the water-based composition is an ink, R1 and R2 are independently a C5 or C6 alkyl group. […] The maximum-bubble-pressure method of measuring surface tension is described in Langmuir 1986, 2, 428-432, which is incorporated by reference.
In the following Examples dynamic surface tension data were obtained for aqueous solutions of various compounds using the maximum bubble pressure method at bubble rates from 0.1 bubbles/second (b/s) to 20 b/s. […] In practical terms, high bubble rates correspond to high printing speeds in lithographic printing, high spray or roller velocities in coating applications, and rapid application rates for agricultural products.
Dynamic surface tension data were obtained for a 0.1 wt % aqueous solution of the 9.5 mole ethoxylate of nonylphenol using the maximum bubble pressure method at bubble rates from 0.1 bubbles/second (b/s) to 20 b/s.
(§1) Solutions of the materials of Examples 1-12 in distilled water were prepared. […] The pC20 value is defined as the negative logarithm of the molar concentration of surfactant required to decrease the surface tension of an aqueous solution to 52.1 dyne/cm, that is, 20 dyne/cm below that of pure water when the measurement is performed at 0.1 b/s. This value is a measure of the efficiency of a surfactant. […] In addition, the relative efficiency of surfactants can be obtained by comparing surface tension reduction of solutions containing the same amount of different surfactants. Such data is given for 0.1 wt % solutions of the tartrates at 1.0 and 6.0 bubbles/second (b/s). The solubility limit was determined by intersection of the linear portion of a surface tension/In concentration curve with the limiting surface tension as is described in many textbooks. The limiting surface tensions at 0.1, 1, 6 and 20 b/s represent the lowest surface tensions in water which can be achieved at the given surface creation rates for a given surfactant regardless of the amount of surfactant used and is used to evaluate the effectiveness of a surfactant. These values give information about the relative ability to a surfactant to reduce surface defects under near-equilibrium conditions (0.1 b/s) through very dynamic conditions (20 b/s). Lower surface tensions would allow the elimination of defects upon application of a formulation onto lower energy surfaces.

[2] = Foam test based upon ASTM D 1173-53; conditions: 0.1 wt % solution
From the text: The foaming properties of a 0.1 wt % solution of the comparative example (nonylphenol 9.5 mole ethoxylate) and various dialkyltartrates (diisopropyl-(D)-tartrate, dibutyl-L-tartrate. diisobutyl-DL-tartrate, di-sec-butyl-DL-tartrate, dipentyl-DL-tartrate, diisoamyl-DL-tartrate, di-(2-methyl-butyl)-DL-tartrate, dineopentyl-DL-tartrate, dihexyl-DL-tartrate, di-(4-methyl-2-pentyl)-DL-tartrate, dibenzyl-DL-tartrate and di-(2-ethyl-hexyl)-DL-tartrate) were examined using a procedure based upon ASTM D 1173-53. In this test, a 0.1 wt % solution of the surfactant is added from an elevated foam pipette to a foam receiver containing the same solution. The foam height is measured at the completion of the addition (“Initial Foam Height”) and the time required for the foam to dissipate at the air-liquid interface (“Time to 0 Foam”) is recorded. This test provides a comparison between the foaming characteristics of various surfactants. In general, in coatings, inks, adhesives and agricultural formulations, foam is undesirable because is complicates handling and can lead to coating and print defects, and to inefficient application of agricultural materials.

[3] = Solubility limit in water from surface tension/ln concentration curve; conditions: in distilled water
Experimental: as §1

Molecule	Dynamic Surface Tension (0.1 b/s) ([1]; 0.1 wt % aqueous solution, 0.1 b/s) [dyne/cm]	Dynamic Surface Tension (1 b/s) ([1]; 0.1 wt % aqueous solution, 1 b/s) [dyne/cm]	Dynamic Surface Tension (6 b/s) ([1]; 0.1 wt % aqueous solution, 6 b/s) [dyne/cm]	Dynamic Surface Tension (15 b/s) ([1]; 0.1 wt % aqueous solution, 15 b/s) [dyne/cm]	Dynamic Surface Tension (20 b/s) ([1]; 0.1 wt % aqueous solution, 20 b/s) [dyne/cm]	initial foam [2] [cm]	time to zero foam [2] [s]	solubility limit [3]	γ (0.1 wt % solution) (1 b/s) ([1]; 1 b/s) [Dyne/cm]	γ (0.1 wt % solution) (6 b/s) ([1]; 6 b/s) [Dyne/cm]	limiting γ (0.1 b/s) ([1]; 0.1 b/s) [Dyne/cm]	limiting γ (1 b/s) ([1]; 1 b/s) [Dyne/cm]	limiting γ (6 b/s) ([1]; 6 b/s) [Dyne/cm]	limiting γ (20 b/s) ([1]; 20 b/s) [Dyne/cm]	pC20 [1]	time to zero foam ([2]; unit not given)	decrease in the limiting surface tension ([1]; 20 b/s) [dyne/cm]
9.5 mole ethoxylate of nonylphenol [reference compound]	33.2	36.7	44.3	52.8	56.2	4.5	>300										
CCCCOC(=O)C(O)C(O)C(=O)OCCCC (racemic) [Example 2, Dibutyl-L-tartrate]								1.1 Weight %									
CC(C)COC(=O)C(O)C(O)C(=O)OCC(C)C (racemic) [Example 3, Diisobutyl-DL-tartrate]						0.5	0.3	0.7 Weight %	50.6	51.4	38.7	39.3	39.8	40.8	2.6		
CCC(C)OC(=O)C(O)C(O)C(=O)OC(C)CC (racemic) [Example 4, Di-sec-butyl-DL-tartrate]						1.7	0.4	1.7 Weight %	52.2	53.2	35.1	35.0	35.0	36.0	2.5		
CCCCCOC(=O)C(O)C(O)C(=O)OCCCCC (racemic) [Example 5, Dipentyl-DL-tartrate]						0		0.1 Weight %	36.8	37.8	35.9	36.8	37.8	41.6	3.3	0	
CC(C)CCOC(=O)C(O)C(O)C(=O)OCCC(C)C (racemic) [Example 6, Diisoamyl-DL-tartrate]						0		0.1 Weight %	35.4	36.7	34.9	35.7	37.2	40.3	3.7	0	1.3
CCC(C)COC(=O)C(O)C(O)C(=O)OCC(C)CC (racemic) [Example 7, Di(2-methyl-butyl)-DL-tartrate]						0		0.1 Weight %	39.0	39.8	35.6	36.0	36.0	38.5	3.2	0	
CC(C)(C)COC(=O)C(O)C(O)C(=O)OCC(C)(C)C (racemic) [Example 8, Dineopentyl-DL-tartrate]						0		0.2 Weight %	38.7	39.8	35.1	35.5	36.1	38.4	3.5	0	3.2
CCCCCCOC(=O)C(O)C(O)C(=O)OCCCCCC (racemic) [Example 9, Dihexyl-DL-tartrate]						1.3	0.1	0.01 Weight %	59.0	65.9	40.5	59.0	65.9	70.0	3.8		
CC(C)CC(C)OC(=O)C(O)C(O)C(=O)OC(C)CC(C)C (racemic) [Example 10, Di(4-methyl-2-pentyl)-DL-tartrate]						0.8	0.3	0.02 Weight %	42.2	46.8	41.3	49.9	56.1	68.2	3.7		
O=C(OCc1ccccc1)C(O)C(O)C(=O)OCc1ccccc1 (racemic) [Example 11, Dibenzyl-DL-tartrate]						1.3	0.1	0.05 Weight %	67.8	70.0	64.0	68.1	69.8	72.5	1.0		
CC(C)OC(=O)C(O)C(O)C(=O)OC(C)C [Example 1, Diisopropyl-D-tartrate]								>5% Weight %									
